Assays:
HCV Replicon = HCV Replicon inhibition; type: cell-based; details: Hepatitis C virus
HCV NS5B polymerase = target: T1, HCV NS5B polymerase (Hepatitis C virus genotype 1a, UniProt P27958); assay: Replizyme HCV heterotemplate radioactive RNA-dependent RNA-polymerase (RdRp) assay; type: biochemical; details: pre-incubated 30 minutes at 37° C., reaction 90 minutes at 37° C.; read-out: HCV NS5B inhibition EC50
T1 construct: pre-incubated with the RNA template and NS5B polymerase protein; purchased Replizyme
T1 sequence (P27958 2421-3011): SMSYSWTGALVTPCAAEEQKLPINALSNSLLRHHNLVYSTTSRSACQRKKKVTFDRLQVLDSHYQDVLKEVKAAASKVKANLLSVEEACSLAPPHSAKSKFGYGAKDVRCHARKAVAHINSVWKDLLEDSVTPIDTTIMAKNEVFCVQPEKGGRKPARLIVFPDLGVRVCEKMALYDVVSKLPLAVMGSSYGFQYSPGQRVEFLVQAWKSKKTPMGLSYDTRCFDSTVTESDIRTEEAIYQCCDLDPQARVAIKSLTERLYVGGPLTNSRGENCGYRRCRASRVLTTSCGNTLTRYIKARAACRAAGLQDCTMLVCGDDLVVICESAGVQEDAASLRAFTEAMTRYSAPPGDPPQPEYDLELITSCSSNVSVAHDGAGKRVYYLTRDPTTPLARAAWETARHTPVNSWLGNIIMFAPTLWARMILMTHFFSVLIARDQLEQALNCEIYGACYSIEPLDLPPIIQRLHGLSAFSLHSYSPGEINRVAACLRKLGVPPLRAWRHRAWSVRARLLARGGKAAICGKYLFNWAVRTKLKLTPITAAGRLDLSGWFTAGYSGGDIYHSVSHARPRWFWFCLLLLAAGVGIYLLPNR
Description: The compounds were tested in the Replizyme HCV heterotemplate radioactive RNA-dependent RNA-polymerase (RdRp) assay. The test compounds were pre-incubated with the RNA template and NS5B polymerase protein at 37° C. for 30 minutes. The RdRp reaction was initiated with the addition of the NTPs to the buffer-NS5B-compound mix, and was allowed to proceed for 90 minutes at 37° C. Control reactions included: no enzyme, 5% DMSO (test compound solvent), no compound/solvent, Cordycepin-TP and HCV-796 (IC50 values used as a reference inhibition). Radioactive products were collected by applying the stopped reaction to DE-81 paper, air dried prior to washing with buffer comprising NaH2PO4 and sodium pyrophosphate to remove unincorporated ^32P-GTP in the NTP mix, and rinsed with dH2O followed by 100% ethanol. The DE-81 paper was air dried, squares cut out and placed in scintillation tubes for counting.

What does the source list for `CS(=O)(=O)Nc1ccc2c(c1)S(=O)(=O)N=C(c1c(O)n3cc(F)ccc3c(Cc3cc(F)cc(F)c3)c1=O)N2` [Compound 101]?
EC50 (HCV Replicon): < 100 nM; EC50 (HCV NS5B polymerase): < 100 nM

Which EC50 (HCV Replicon) does the source give for `CS(=O)(=O)Nc1ccc2c(c1)S(=O)(=O)N=C(c1c(O)n3cc(F)ccc3c(Cc3ccc(F)c(F)c3)c1=O)N2` [Compound 102S] here?
Its EC50 is < 100 nM.

And the EC50 (HCV NS5B polymerase)?
The EC50 was < 100 nM.

Which results are given for `CS(=O)(=O)Nc1ccc2c(c1)S(=O)(=O)N=C(c1c(O)n3cc(F)ccc3c(Cc3ccc(F)cc3)c1=O)N2` [Compound 103S]?
EC50 (HCV Replicon): < 100 nM; EC50 (HCV NS5B polymerase): < 100 nM

For `CC(C)(C)CCc1c(=O)c(C2=NS(=O)(=O)c3cc(NS(C)(=O)=O)ccc3N2)c(O)n2cc(F)ccc12` [Compound 104S], which EC50 (HCV Replicon) is on record?
The EC50 was < 100 nM.

What about the EC50 (HCV NS5B polymerase) of the same compound?
The EC50 was < 100 nM.

With `CS(=O)(=O)Nc1ccc2c(c1)S(=O)(=O)N=C(c1c(O)n3ccccc3c(Cc3cc(F)cc(F)c3)c1=O)N2` [Compound 105S] as the compound, how does the EC50 (HCV Replicon) read?
Its EC50 is < 100 nM.

What about the EC50 (HCV NS5B polymerase) of the same compound?
The EC50 was < 100 nM.

From patent publication US20110110890A1, “Novel Inhibitors of Hepatitis C Virus Replication” (INTERMUNE, INC., priority 2009, published 2011)
